Test results from US9675592B2, “Methods and compositions for bacteria infections” (priority 2013, dated 2017).

Tests used:
[1] = test system: vraSR promoter (Pvra-lux reporter in strain 923); assay: Primary screen, relative luminescence (vraSR expression); conditions: primary screen, compound 10 μM with oxacillin 2 μg/mL; <0.50 = vraSR repressed = hit
[2] = test system: test strain 923 pPvra-lux (USA300 MRSA); assay: Primary screen, relative growth in presence of oxacillin; conditions: compound 10 μM with oxacillin 2 μg/mL, absorbance 24 h, <0.50 = dead cells = hit

| SMILES | RL avg (relative luminescence) [1] | RG avg (relative growth) [2] |
| --- | --- | --- |
| CCN(CC)S(=O)(=O)c1ccc(C(=O)Nc2nnc(-c3ccc4c(c3)CCCC4)o2)cc1 [F0608-543] | −0.08 | −0.02 |
| CC(C)Cn1c(N)c(C(=O)NCc2cccs2)c2nc3ccccc3nc21 [F3225-3356] | 0.01 | 0.39 |
| O=C(Nc1nnc(-c2ccc3c(c2)CCCC3)o1)c1cccs1 [F0608-554] | −0.08 | −0.04 |
| O=C(Nc1nnc(-c2ccccc2Cl)o1)c1sc2ccccc2c1Cl [F1374-43] | 0.35 | 0.04 |
| O=C(Nc1nnc(-c2cc(Cl)ccc2Cl)o1)c1ccccc1 [F2518-2] | 0.01 | −0.02 |
| O=C(Nc1nnc(-c2ccc(Cl)cc2)o1)c1ccc2ncsc2c1 [F1374-836] | 0.31 | −0.01 |
| Cc1cccc(C(=O)Nc2nnc(-c3ccc(Br)cc3)o2)c1 [F2518-436] | −0.06 | 0.00 |
| O=C(Nc1nnc(-c2ccc(F)cc2)o1)c1ccc2c(c1)CCCC2 [F1374-172] | 0.39 | 0.04 |
| O=C(Nc1nnc(-c2cccs2)o1)c1ccc2c(c1)CCCC2 [F1374-1012] | 0.49 | 0.16 |
| CCOc1cc(-c2nnc(NC(=O)c3ccc4ccccc4c3)o2)cc(OCC)c1OCC [F2517-182] | −0.04 | 0.46 |
| CCC1CCCCN1S(=O)(=O)c1ccc(C(=O)Nc2nnc(Cc3ccc(OC)cc3)o2)cc1 (stereo not shown) [F2368-619] | 0.01 | −0.03 |
| O=C(Nc1nnc(-c2ccc3c(c2)CCCC3)o1)c1ccc(Cl)cc1Cl [F0608-661] | −0.04 | 0.11 |
| O=C(Nc1nnc(-c2cccs2)o1)c1ccc(S(=O)(=O)N2CCCc3ccccc32)cc1 [F0559-350] | 0.11 | 0.43 |
| O=C(Nc1nnc(-c2cc(Cl)sc2Cl)o1)c1ccc(F)cc1F [F1374-2707] | 0.32 | 0.00 |
| CCOc1cc(C(=O)Nc2nnc(-c3ccccc3SC)o2)cc(OCC)c1OCC [F2645-99] | 0.43 | 0.09 |
| O=C(Nc1nc(-c2ccccn2)cs1)c1cccc(Oc2ccccc2)c1 [F0447-264] | −0.05 | −0.03 |
| COc1cccc2cc(-c3nnc(NC(=O)c4ccc(S(=O)(=O)N(C)C)cc4)o3)oc12 [F2273-29] | 0.29 | 0.16 |
| COc1cc(-c2nnc(NC(=O)c3cccc(Cl)c3)o2)cc(OC)c1OC [F2517-7] | −0.11 | −0.03 |
| COc1ccccc1-c1nnc(NC(=O)c2ccc(-c3ccccc3)cc2)o1 [F1374-220] | 0.35 | 0.01 |
| O=C(Nc1nnc(-c2cccs2)o1)c1sc2ccccc2c1Cl [F1374-988] | 0.37 | 0.03 |
| O=C(Nc1nnc(-c2ccc3c(c2)CCCC3)o1)c1sc2ccccc2c1Cl [F0608-665] | −0.01 | 0.19 |

| SMILES | RL avg (relative luminescence) [1] | RG avg (relative growth) [2] |
| --- | --- | --- |
| O=C(Nc1nnc(-c2cc(Cl)sc2Cl)o1)c1cccs1 [F1374-2664] | 0.32 | 0.00 |
| O=C(Nc1nnc(-c2cc3ccccc3o2)o1)c1ccc2ncsc2c1 [F2273-492] | 0.24 | 0.25 |
| COc1cccc2cc(-c3nnc(NC(=O)c4cccc(F)c4)o3)oc12 [F2273-13] | −0.06 | −0.03 |
| O=C(Nc1nnc(-c2ccc3c(c2)CCCC3)o1)c1ccc(Cl)s1 [F0608-662] | −0.10 | −0.07 |
| O=C(Nc1nc(-c2ccccn2)cs1)c1cc(Cl)ccc1Cl [F0447-277] | −0.11 | −0.06 |
| O=C(Nc1nnc(-c2ccc(Br)s2)o1)c1nc2ccccc2s1 [F5093-37] | −0.03 | 0.02 |
| COc1cccc2cc(C(=O)Nc3nnc(-c4ccc(Br)s4)o3)oc12 [F5093-196] | −0.01 | −0.01 |
| CSc1ccccc1-c1nnc(NC(=O)c2cc(Cl)sc2Cl)o1 [F2645-67] | 0.37 | 0.02 |
| O=C(Nc1nnc(-c2ccc(Cl)cc2)o1)c1cccs1 [F1374-757] | 0.29 | 0.02 |
| O=C(Nc1nnc(-c2ccccc2Cl)o1)c1cc(Cl)sc1Cl [F1374-58] | 0.33 | 0.03 |
| Cc1ccc(C)c(-c2nnc(NC(=O)c3cc(Cl)sc3Cl)o2)c1 [F2518-360] | 0.13 | 0.04 |
| COc1cc(-c2nnc(NC(=O)c3cccc(C(F)(F)F)c3)o2)cc(OC)c1OC [F2517-37] | −0.06 | −0.02 |
| O=C(Nc1nnc(-c2ccco2)o1)c1ccc(-c2ccccc2)cc1 [F0608-410] | −0.07 | −0.07 |
| O=C(Nc1nnc(-c2ccc(Br)cc2)o1)c1cccc(C(F)(F)F)c1 [F2518-477] | 0.03 | 0.01 |
| COc1ccc(OCc2noc(CNC(=O)Nc3ccc(Cl)c(Cl)c3)n2)cc1 [F5882-3269] | −0.02 | −0.01 |
| O=C(Nc1nnc(-c2cc(Cl)ccc2Cl)o1)c1cc(Cl)ccc1Cl [F2518-49] | −0.05 | −0.03 |
| CSc1ccc(-c2nnc(NC(=O)c3ccc4c(c3)CCCC4)o2)cc1 [F2645-379] | 0.37 | 0.04 |
| O=C(Nc1nnc(-c2ccc(Br)s2)o1)c1ccc2ncsc2c1 [F5093-111] | −0.02 | −0.02 |
| O=C(Nc1nnc(-c2ccc(F)cc2)o1)c1ccc(Br)s1 [F1374-140] | 0.35 | 0.02 |
| O=C(Nc1nnc(-c2cccs2)o1)c1cccc(C(F)(F)F)c1 [F1374-982] | 0.35 | 0.13 |
| O=C(Nc1nnc(-c2ccc(Cl)s2)o1)c1ccc2ncsc2c1 [F1374-1151] | 0.35 | −0.02 |

| SMILES | RL avg (relative luminescence) [1] | RG avg (relative growth) [2] |
| --- | --- | --- |
| O=C(Nc1nnc(-c2ccccc2Cl)o1)c1cccc(Br)c1 [F1374-14] | 0.38 | 0.24 |
| O=C(Nc1nnc(-c2ccc(Cl)s2)o1)c1nc2ccccc2s1 [F1374-1083] | 0.49 | 0.02 |
| Cc1ccc(C)c(-c2nnc(NC(=O)c3cccc(F)c3)o2)c1 [F2518-301] | −0.10 | −0.01 |
| Cc1ccc(C)c(-c2nnc(NC(=O)c3ccc4ncsc4c3)o2)c1 [F2518-414] | −0.02 | 0.01 |
| COc1cccc2cc(-c3nnc(NC(=O)c4nc5ccccc5s4)o3)oc12 [F2273-37] | 0.09 | 0.09 |
| COc1ccc(-c2nnc(NC(=O)c3ccc(C(C)(C)C)cc3)o2)cc1 [F1374-495] | 0.37 | 0.04 |
| Cc1ccc(NCC(O)Cn2c3ccc(Br)cc3c3cc(Br)ccc32)cc1 (stereo not shown) [F0191-4604] | −0.06 | −0.07 |
| Cc1ccc(-c2nnc(NC(=O)c3ccc(Cl)s3)o2)c(C)c1 [F2518-186] | −0.09 | 0.01 |
| COc1ccc(-c2nnc(NC(=O)c3ccc(Br)s3)o2)cc1 [F1374-455] | 0.33 | 0.03 |
| O=C(Nc1nnc(-c2ccccn2)o1)c1cc(Cl)cc(Cl)c1 [F0608-928] | 0.07 | −0.01 |
| O=C(Nc1nnc(-c2ccc(Cl)s2)o1)c1ccccc1Oc1ccccc1 [F1374-1149] | 0.28 | −0.01 |
| COc1cccc(-c2nnc(NC(=O)c3ccc(S(=O)(=O)N4CCc5ccccc5C4)cc3)o2)c1 [F0559-171] | −0.11 | −0.06 |
| O=C(Nc1nnc(-c2cc(Cl)ccc2Cl)o1)c1ccc(C(=O)c2ccccc2)cc1 [F2518-24] | 0.06 | −0.01 |
| Cc1onc(-c2ccccc2Cl)c1C(=O)Nc1nnc(-c2cc(Cl)sc2Cl)o1 [F1374-2706] | 0.25 | 0.02 |
| O=C(Nc1nnc(-c2ccc(Cl)s2)o1)c1cccc(F)c1 [F1374-1062] | 0.46 | 0.01 |
| O=C(Nc1nnc(-c2ccc(Cl)s2)o1)c1cc(-c2ccccc2)nc2ccccc12 [F1374-1094] | 0.52 | 0.03 |
| COc1ccc(Cc2nnc(NC(=O)c3ccc(S(=O)(=O)N(C)Cc4ccccc4)cc3)o2)cc1 [F2368-617] | −0.07 | −0.04 |
| COc1cc(-c2nnc(NC(=O)c3ccc(S(=O)(=O)N(C)c4ccccc4)cc3)o2)cc(OC)c1OC [F0559-307] | −0.08 | −0.04 |
| O=C(Nc1nnc(-c2ccc(Br)s2)o1)c1ccc(Cl)s1 [F5093-40] | −0.02 | 0.03 |
| COc1ccc(-c2nnc(NC(=O)c3cc(Cl)sc3Cl)o2)c(OC)c1 [F1374-583] | 0.36 | 0.00 |
